# From ChEMBL document CHEMBL5532639, “Heterocyclic pyrimidine derivatives as promising antibacterial agents” (Eur J Med Chem, 2023)
# How the values were obtained:
# Klebsiella sp. = test: Antibacterial activity against Klebsiella sp. assessed as inhibition of bacterial growth; assay type: functional
# Staphylococcus aureus [1] = test: Antibacterial activity against Staphylococcus aureus assessed as reduction in microbial growth; assay type: functional
# Pseudomonas aeruginosa [2] = test: Antibacterial activity against Pseudomonas aeruginosa assessed as reduction in bacterial growth; assay type: functional
# Escherichia coli [3] = test: Antibacterial activity against Escherichia coli assessed as reduction in bacterial growth; assay type: functional
# Pseudomonas aeruginosa [4] = test: Antibacterial activity against Pseudomonas aeruginosa assessed as reduction in bacterial growth by broth microdilution method; assay type: functional
# Escherichia coli [5] = test: Antibacterial activity against Escherichia coli ATCC 25922 assessed as bacterial growth inhibition; assay type: functional
# Bacillus subtilis [6] = test: Antibacterial activity against Bacillus subtilis; assay type: functional
# Streptococcus pyogenes = test: Antibacterial activity against Streptococcus pyogenes assessed as reduction in microbial growth by CLSI based broth microdilution method; assay type: functional
# Bacillus subtilis [7] = test: Antibacterial activity against Bacillus subtilis 6633 assessed as reduction in bacterial growth; assay type: functional
# Streptococcus pneumoniae [8] = test: Antimicrobial activity against Streptococcus […] assessed as bacterial growth inhibition by measuring zone of inhibition at 50 ug/ml by agar cup diffusion assay; assay type: functional; conditions: read-out: IZ
# Staphylococcus aureus [9] = test: Antibacterial activity against Staphylococcus aureus ATCC 3750 assessed as reduction in bacterial growth; assay type: functional
# Staphylococcus aureus [10] = test: Antibacterial activity against Staphylococcus aureus assessed as reduction in microbial growth by CLSI based broth microdilution method; assay type: functional
# Bacillus subtilis [11] = test: Antimicrobial activity against Bacillus subtilis RCMB 010069 assessed as bacterial growth inhibition by measuring zone of inhibition at 50 ug/ml by agar cup diffusion assay; assay type: functional; conditions: read-out: IZ
# Salmonella typhimurium [12] = test: Antibacterial activity against Salmonella typhimurium DT104 assessed as reduction in bacterial growth; assay type: functional, Salmonella enterica subsp. enterica serovar Typhimurium; conditions: Salmonella enterica
# Escherichia coli [13] = test: Antibacterial activity against Escherichia coli assessed as bacterial growth inhibition incubated for 18 hrs by CLSI protocol based Mueller-Hinton broth assay; assay type: functional
# Staphylococcus aureus [14] = test: Antibacterial activity against Staphylococcus aureus; assay type: functional
# Streptococcus pneumoniae [15] = test: Antibacterial activity against Streptococcus pneumoniae; assay type: functional
# Toxoplasma gondii = test: Antiparasitic activity against Toxoplasma gondii assessed as parasitic growth inhibition; assay type: functional, organism-based
# Pneumocystis carinii = test: Antifungal activity against Pneumocystis carinii assessed as reduction in fungal growth; assay type: functional, organism-based
# Staphylococcus aureus [16] = test: Antibacterial activity against Staphylococcus aureus assessed as bacterial growth inhibition; assay type: functional
# Klebsiella pneumoniae = test: Antibacterial activity against Klebsiella pneumoniae assessed as reduction in bacterial growth by broth microdilution method; assay type: functional
# Bacillus subtilis [17] = test: Antibacterial activity against Bacillus subtilis assessed as reduction in bacterial cell viability by well plate method; assay type: functional
# Pseudomonas aeruginosa [18] = test: Antibacterial activity against Pseudomonas aeruginosa assessed as reduction in microbial growth by broth microdilution method; assay type: functional
# Escherichia coli [19] = test: Antibacterial activity against Escherichia coli assessed as reduction in bacterial growth by broth microdilution method; assay type: functional
# [20] = test system: Staphylococcus epidermidis; test: Antibacterial activity against Staphylococcus epidermidis assessed as reduction in microbial growth; assay type: functional
# Escherichia coli [21] = test: Antibacterial activity Escherichia coli assessed as reduction in bacterial growth; assay type: functional
# Pseudomonas aeruginosa [22] = test: Antibacterial activity against Pseudomonas aeruginosa assessed as reduction in microbial growth after 18 hrs by MTT based broth dilution method; assay type: functional
# Pseudomonas aeruginosa [23] = test: Antibacterial activity against Pseudomonas aeruginosa; assay type: functional
# Escherichia coli [24] = test: Antibacterial activity against Escherichia coli; assay type: functional
# Salmonella typhimurium [25] = test: Antimicrobial activity against Salmonella typhimurium DT104 assessed as diameter of inhibition zone incubated for 24 hrs by well diffusion assay; assay type: functional, Salmonella enterica subsp. enterica serovar Typhimurium
# Pseudomonas aeruginosa [26] = test: Antimicrobial activity against Pseudomonas aeruginosa assessed as diameter of inhibition zone incubated for 24 hrs by well diffusion assay; assay type: functional
# Bacillus subtilis [27] = test: Antimicrobial activity against Bacillus subtilis assessed as diameter of inhibition zone incubated for 24 hrs by well diffusion assay; assay type: functional
# Micrococcus luteus = test: Antimicrobial activity against Micrococcus luteus assessed as diameter of inhibition zone incubated for 24 hrs by well diffusion assay; assay type: functional
# Pseudomonas aeruginosa [28] = test: Antibacterial activity against Pseudomonas aeruginosa ATCC 85327 assessed as reduction in bacterial growth measured after 24 hrs by Mueller-Hinton broth assay; assay type: functional
# Bacillus subtilis [29] = test: Antibacterial activity against Bacillus subtilis assessed as reduction in microbial growth by measuring zone of inhibition; assay type: functional
# Bacillus subtilis [30] = test: Antibacterial activity against Bacillus subtilis ATCC 465 assessed as reduction in bacterial growth measured after 24 hrs by Mueller-Hinton broth assay; assay type: functional
compound,measurement,setting,value
COc1ccc2cc(-c3nc4sc5c(c4c(=O)n3N)CCCC5)ccc2c1,MIC,Klebsiella sp.,12.5 mg/L
same,MIC,Staphylococcus aureus [1],12.5 mg/L
same,MIC,Pseudomonas aeruginosa [2],12.5 mg/L
same,MIC,Escherichia coli [3],12.5 mg/L
CC1(C)S[C@@H]2[C@H](NC(=O)[C@H](N)c3ccccc3)C(=O)N2[C@H]1C(=O)O [AMPICILLIN],MIC,Pseudomonas aeruginosa [4],100 mg/L
same,MIC,Escherichia coli [5],4 mg/L
same,MIC,Bacillus subtilis [6],0.49 mg/L
same,MIC,Streptococcus pyogenes,100 mg/L
same,MIC,Bacillus subtilis [7],4 mg/L
same,zone of inhibition at 50 µg/mL,Streptococcus pneumoniae [8],23.8 mm
same,MIC,Staphylococcus aureus [9],50 mg/L
same,MIC,Staphylococcus aureus [10],250 mg/L
same,zone of inhibition at 50 µg/mL,Bacillus subtilis [11],32.4 mm
same,MIC,Salmonella typhimurium [12],49 mg/L
same,MIC,Escherichia coli [13],100 mg/L
same,MIC,Staphylococcus aureus [14],0.49 mg/L
same,MIC,Streptococcus pneumoniae [15],0.98 mg/L
COc1ccc(-c2cc(C#Cc3ccc(C(=O)O)cc3)cc(Cc3cnc(N)nc3N)c2)cc1OC,IC50,Toxoplasma gondii,0.42 µM
same,IC50,Pneumocystis carinii,1.2 µM
O=C1CCCC2=C1C(c1ccc(Cl)cc1)c1c(nc(-c3cc4ccccc4oc3=O)[nH]c1=O)O2 (stereo not given),MIC,Staphylococcus aureus [16],100 mg/L
same,MIC,Klebsiella pneumoniae,100 mg/L
same,MIC,Bacillus subtilis [17],25 mg/L
same,MIC,Pseudomonas aeruginosa [18],100 mg/L
same,MIC,Escherichia coli [19],50 mg/L
same,MIC,[20],50 mg/L
same,MIC,Escherichia coli [21],100 mg/L
same,MIC,Pseudomonas aeruginosa [22],100 mg/L
O=c1[nH]c(=S)[nH]c2nc(-c3ccc(Cl)cc3)cc(-c3ccccc3)c12,MIC,Bacillus subtilis [6],1.95 mg/L
same,MIC,Pseudomonas aeruginosa [23],3.9 mg/L
same,MIC,Staphylococcus aureus [14],3.9 mg/L
same,MIC,Escherichia coli [24],0.98 mg/L
same,MIC,Streptococcus pneumoniae [15],0.98 mg/L
CC[C@H]1OC(=O)[C@H](C)[C@@H](O[C@H]2C[C@@](C)(OC)[C@@H](O)[C@H](C)O2)[C@H](C)[C@@H](O[C@@H]2O[C@H](C)C[C@H](N(C)C)[C@H]2O)[C@](C)(O)C[C@@H](C)C(=O)[C@H](C)[C@@H](O)[C@]1(C)O [ERYTHROMYCIN],inhibition zone (IZ),Salmonella typhimurium [25],7 mm
same,inhibition zone (IZ),Pseudomonas aeruginosa [26],10 mm
same,inhibition zone (IZ),Bacillus subtilis [27],12 mm
same,inhibition zone (IZ),Micrococcus luteus,10 mm
GENTAMICIN,MIC,Pseudomonas aeruginosa [28],1 mg/L
same,inhibition zone (IZ),Bacillus subtilis [29],24 mm
same,MIC,Bacillus subtilis [30],0.125 mg/L
same,MIC,Pseudomonas aeruginosa [23],0.98 mg/L
